Measured values published in PubChem BioAssay AID328 (DTP/NCI, 2004).
“And” between values parts separate entries of the source, which are not always exact repeats. Identical values can stand only once. Toxic doses and inconclusive results are not listed.

Test system: BDF1 mice, P388 leukemia ip, median survival T/C
Assay: NCI In Vivo Anticancer Drug Screen. Data for tumor model P388 Leukemia (intraperitoneal) in B6D2F1 (BDF1) mice
Details: endpoint: median survival time, higher = longer survival
In short: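 Reported as T/C, where T is the survival measurement in dosed animals and C the same measurement in vehicle controls.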

[1] = dose: 100.0 mg/kg/injection, schedule: Q04DX003 (ip), vehicle: saline with Tween-80
[2] = dose: 400.0 mg/kg/injection, schedule: Q04DX003 (ip), vehicle: saline with Tween-80
[3] = dose: 100.0 mg/kg/injection, schedule: Q01DX009 (ip), vehicle: Klucel (hydroxypropylcellulose) (HPC)
[4] = dose: 200.0 mg/kg/injection, schedule: Q01DX009 (ip), vehicle: Klucel (hydroxypropylcellulose) (HPC)
[5] = dose: 400.0 mg/kg/injection, schedule: Q01DX009 (ip), vehicle: Klucel (hydroxypropylcellulose) (HPC)
[6] = dose: 6.25 mg/kg/injection, schedule: Q01DX009 (ip), vehicle: saline with Tween-80
[7] = dose: 12.5 mg/kg/injection, schedule: Q01DX009 (ip), vehicle: saline with Tween-80
[8] = dose: 25.0 mg/kg/injection, schedule: Q01DX009 (ip), vehicle: saline with Tween-80
[9] = dose: 50.0 mg/kg/injection, schedule: Q01DX009 (ip), vehicle: saline with Tween-80
[10] = dose: 100.0 mg/kg/injection, schedule: Q04DX003 (ip), vehicle: saline
[11] = dose: 200.0 mg/kg/injection, schedule: Q04DX003 (ip), vehicle: saline
[12] = dose: 100.0 mg/kg/injection, schedule: Q01DX009 (ip), vehicle: saline with Tween-80

ClC1(Cl)Cc2ccccc21
T/C [1]: 109 % of control
T/C (dose: 266.0 mg/kg/injection, schedule: Q04DX003 (ip), vehicle: saline with Tween-80): 108 % of control
T/C [2]: 108 % of control
T/C (dose: 600.0 mg/kg/injection, schedule: Q04DX003 (ip), vehicle: saline with Tween-80): 120 % of control

CCCCNC(=O)Nc1ccccc1Cl
T/C [1]: 100 % of control
T/C (dose: 200.0 mg/kg/injection, schedule: Q04DX003 (ip), vehicle: saline with Tween-80): 100 % of control
T/C [2]: 95 % of control

CN(/N=N/c1nc[nH]c1C(N)=O)C(C)(C)C
T/C [3]: 117 % of control
T/C [4]: 108 % of control
T/C [5]: 88 % of control

COc1cc(O)c2c(c1)C(=O)c1cc3c(c(O)c1C2=O)C(OC1OC(C)C(O)C(O)C1OC)C(OC)C(C)(O)C3=O (stereo not drawn)
T/C (dose: 25.9 mg/kg/injection, schedule: Q01DX009 (ip), vehicle: Klucel (hydroxypropylcellulose) (HPC)): 116 % of control
T/C (dose: 37.5 mg/kg/injection, schedule: Q01DX010 (ip), vehicle: carboxymethylcellulose (CMC)): 150 % of control
T/C (dose: 37.5 mg/kg/injection, schedule: Q01DX010 (ip), vehicle: saline): 111 % of control and 115 % of control
T/C (dose: 43.2 mg/kg/injection, schedule: Q01DX009 (ip), vehicle: Klucel (hydroxypropylcellulose) (HPC)): 121 % of control
T/C (dose: 75.0 mg/kg/injection, schedule: Q01DX010 (ip), vehicle: carboxymethylcellulose (CMC)): 165 % of control
T/C (dose: 75.0 mg/kg/injection, schedule: Q01DX010 (ip), vehicle: saline): 120 % of control and 122 % of control
T/C (dose: 108.0 mg/kg/injection, schedule: Q04DX003 (ip), vehicle: Klucel (hydroxypropylcellulose) (HPC)): 114 % of control
T/C (dose: 120.0 mg/kg/injection, schedule: Q01DX009 (ip), vehicle: Klucel (hydroxypropylcellulose) (HPC)): 106 % of control
T/C (dose: 180.0 mg/kg/injection, schedule: Q04DX003 (ip), vehicle: Klucel (hydroxypropylcellulose) (HPC)): 110 % of control
T/C (dose: 300.0 mg/kg/injection, schedule: Q04DX003 (ip), vehicle: Klucel (hydroxypropylcellulose) (HPC)): 99 % of control
T/C (dose: 500.0 mg/kg/injection, schedule: Q04DX003 (ip), vehicle: Klucel (hydroxypropylcellulose) (HPC)): 97 % of control

CCC(C)(CC(=O)O)CC(=O)O
T/C (dose: 3.12 mg/kg/injection, schedule: Q01DX009 (ip), vehicle: saline with Tween-80): 95 % of control
T/C [6]: 112 % of control
T/C [7]: 116 % of control
T/C [8]: 87 % of control
T/C [9]: 87 % of control
T/C [10]: 110 % of control
T/C [11]: 120 % of control
T/C (dose: 400.0 mg/kg/injection, schedule: Q04DX003 (ip), vehicle: saline): 120 % of control

COC1C(OC(=O)/C=C/C=C/C=C/C=C\C(=O)O)CCC2(CO2)C1C1(C)OC1CC=C(C)C (stereo not drawn)
T/C (dose: 50.0 mg/kg/injection, schedule: Q04DX003 (ip), vehicle: saline): 110 % of control
T/C [10]: 105 % of control
T/C [11]: 110 % of control

C=C1[C@@H](C)[C@H]2[C@H](Cc3ccccc3)NC(=O)[C@]23OC(=O)/C=C/[C@H](O)CCC[C@@H](C)C/C=C/[C@H]3[C@@H]1O
T/C (dose: 0.25 mg/kg/injection, schedule: Q01DX005 (ip), vehicle: saline with Tween-80): 86 % of control
T/C (dose: 0.5 mg/kg/injection, schedule: Q01DX005 (ip), vehicle: saline with Tween-80): 100 % of control
T/C (dose: 1.0 mg/kg/injection, schedule: Q01DX005 (ip), vehicle: saline with Tween-80): 100 % of control
T/C (dose: 1.0 mg/kg/injection, schedule: Q04DX002 (ip), vehicle: saline): 109 % of control
T/C (dose: 2.0 mg/kg/injection, schedule: Q01DX005 (ip), vehicle: saline with Tween-80): 107 % of control
T/C (dose: 2.0 mg/kg/injection, schedule: Q04DX002 (ip), vehicle: saline): 109 % of control
T/C (dose: 4.0 mg/kg/injection, schedule: Q01DX005 (ip), vehicle: saline with Tween-80): 115 % of control
T/C (dose: 8.0 mg/kg/injection, schedule: Q01DX005 (ip), vehicle: saline with Tween-80): 117 % of control
T/C (dose: 8.0 mg/kg/injection, schedule: Q04DX002 (ip), vehicle: saline): 109 % of control
T/C (dose: 16.0 mg/kg/injection, schedule: Q04DX002 (ip), vehicle: saline): 109 % of control
T/C (dose: 32.0 mg/kg/injection, schedule: Q04DX002 (ip), vehicle: saline): 100 % of control

Cn1nc([N+](=O)[O-])sc1=N
T/C (dose: 50.0 mg/kg/injection, schedule: Q01DX001 (ip), vehicle: saline sonified): 105 % of control
T/C (dose: 100.0 mg/kg/injection, schedule: Q01DX001 (ip), vehicle: saline sonified): 105 % of control
T/C (dose: 200.0 mg/kg/injection, schedule: Q01DX001 (ip), vehicle: saline sonified): 110 % of control

CCOC(=O)c1c(C)nc(C)c(C(=O)OCC)c1-c1cccnc1
T/C (dose: 12.5 mg/kg/injection, schedule: Q01DX009 (ip), vehicle: other): 101 % of control
T/C (dose: 25.0 mg/kg/injection, schedule: Q01DX009 (ip), vehicle: other): 100 % of control
T/C (dose: 50.0 mg/kg/injection, schedule: Q01DX009 (ip), vehicle: other): 100 % of control
T/C (dose: 100.0 mg/kg/injection, schedule: Q01DX009 (ip), vehicle: other): 110 % of control
T/C (dose: 200.0 mg/kg/injection, schedule: Q01DX009 (ip), vehicle: other): 112 % of control

N=C(N)c1ccc(/C=C/c2ccc(C(=N)N)cc2)cc1
T/C (dose: 12.5 mg/kg/injection, schedule: Q01DX009 (ip), vehicle: Klucel (hydroxypropylcellulose) (HPC)): 118 % of control
T/C (dose: 16.5 mg/kg/injection, schedule: Q01DX009 (ip), vehicle: Klucel (hydroxypropylcellulose) (HPC)): 116 % of control and 118 % of control
T/C (dose: 37.5 mg/kg/injection, schedule: Q01DX009 (ip), vehicle: Klucel (hydroxypropylcellulose) (HPC)): 150 % of control

NC(=O)NN=C1CCC(c2ccccc2)CC1 (stereo not drawn)
T/C [9]: 112 % of control
T/C [12]: 112 % of control

Cc1cc(O)c2cc3c(O)c(O)ccc3cc2c1
T/C (dose: 0.5 mg/kg/injection, schedule: Q01DX010 (ip), vehicle: saline): 100 % of control
T/C (dose: 1.0 mg/kg/injection, schedule: Q01DX010 (ip), vehicle: saline): 109 % of control
T/C (dose: 2.0 mg/kg/injection, schedule: Q01DX010 (ip), vehicle: saline): 118 % of control and 122 % of control
T/C (dose: 4.0 mg/kg/injection, schedule: Q01DX010 (ip), vehicle: saline): 122 % of control
T/C (dose: 31.3 micrograms/kg/injection, schedule: Q01DX010 (ip), vehicle: saline): 109 % of control
T/C (dose: 125.0 micrograms/kg/injection, schedule: Q01DX010 (ip), vehicle: saline): 90 % of control
T/C (dose: 250.0 micrograms/kg/injection, schedule: Q01DX010 (ip), vehicle: saline): 90 % of control

CCOC(=O)Nc1nc2ccccc2[nH]1
T/C [6]: 98 % of control
T/C [7]: 116 % of control
T/C [8]: 109 % of control
T/C [9]: 105 % of control

Cc1c(C)c(Cl)c(C)c(Cl)c1O
T/C [3]: 109 % of control
T/C (dose: 100.0 mg/kg/injection, schedule: Q04DX003 (ip), vehicle: Klucel (hydroxypropylcellulose) (HPC)): 100 % of control
T/C [4]: 100 % of control
T/C (dose: 200.0 mg/kg/injection, schedule: Q04DX003 (ip), vehicle: Klucel (hydroxypropylcellulose) (HPC)): 104 % of control
T/C [5]: 109 % of control
T/C (dose: 400.0 mg/kg/injection, schedule: Q04DX003 (ip), vehicle: Klucel (hydroxypropylcellulose) (HPC)): 100 % of control

CC([NH-])C(=O)O.CC([NH-])C(=O)O.[Ni+2] (stereo not drawn)
T/C (dose: 4.0 mg/kg/injection, schedule: Q01DX009 (ip), vehicle: saline): 109 % of control
T/C (dose: 6.25 mg/kg/injection, schedule: Q01DX009 (ip), vehicle: saline): 103 % of control
T/C (dose: 8.0 mg/kg/injection, schedule: Q01DX009 (ip), vehicle: saline): 113 % of control
T/C (dose: 12.5 mg/kg/injection, schedule: Q01DX009 (ip), vehicle: saline): 107 % of control
T/C (dose: 15.0 mg/kg/injection, schedule: Q04DX003 (ip), vehicle: saline): 113 % of control
T/C (dose: 16.0 mg/kg/injection, schedule: Q01DX009 (ip), vehicle: saline): 113 % of control
T/C (dose: 25.0 mg/kg/injection, schedule: Q04DX003 (ip), vehicle: saline): 118 % of control

CC(C)(C)[N]1[Si](C)(C)[N](C(C)(C)C)[Sn]12[S][Sn]1([S]2)[N](C(C)(C)C)[Si](C)(C)[N]1C(C)(C)C
T/C [9]: 100 % of control
T/C [12]: 94 % of control
T/C (dose: 200.0 mg/kg/injection, schedule: Q01DX009 (ip), vehicle: saline with Tween-80): 86 % of control
